From patent US7964628B2, “Fibrinogen receptor antagonists and their use” (Piramal Life Sciences Limited, priority 2003, dated 2011) come the findings set out here.

Structures can show the parent of a compound that is named as a salt.

The melting point is the temperature, or range, at which the solid turns liquid. As for `CCOC(=O)COc1ccc(O)c(C(=O)CN2Cc3cc(C(=N)NO)ccc3C2=O)c1` [Example 61, (4-Hydroxy-3-{2-[5-(N-hydroxycarbamimidoyl)-1-oxo-1,3-dihydro-isoindol-2-yl]-acetyl}-phenoxy)-acetic acid ethyl ester], the melting point fell in the range of 158 to 159 °C.

Consider `CCOC(=O)COc1ccc(C(=O)CN2Cc3cc(C(=N)NO)ccc3C2=O)cc1N(CC(=O)OCC)S(C)(=O)=O` [Example 40, (2-{Ethoxycarbonylmethyl-methanesulfonyl-amino}-4-{2-[5-(N-hydroxycarbamimidoyl)-1-oxo-1,3-dihydro-isoindol-2-yl]-acetyl}-phenoxy)-acetic acid ethyl ester], for which the melting point lay within 165 to 167 °C.

`CC(C)OC(=O)COc1ccc(C(=O)CN2Cc3cc(C(=N)NO)ccc3C2=O)cc1` (hydrate or solvate) [Example 9, (4-{2-[5-(N-Hydroxycarbamimidoyl)-1-oxo-1,3-dihydro-isoindol-2-yl]-acetyl}-phenoxy)-acetic acid isopropyl ester]: the melting point was 164 to 166 °C.

In the case of `CCOC(=O)COc1ccc(C(=O)CN2Cc3cc(C(=N)NO)ccc3C2=O)c(O)c1C` (hydrate or solvate) [Example 55, (3-Hydroxy-4-{2-[5-(N-hydroxycarbamimidoyl)-1-oxo-1,3-dihydro-isoindol-2-yl]-acetyl}-2-methyl-phenoxy)-acetic acid ethyl ester], the melting point lay in the range of 226 to 228 °C.

In turn, `CC(C)COC(=O)COc1ccc(C(=O)CN2Cc3cc(C(=N)NS(C)(=O)=O)ccc3C2=O)cc1` [Example 14, (4-{2-[5-(Imino-methanesulfonylamino-methyl)-1-oxo-1,3-dihydro-isoindol-2-yl]-acetyl}-phenoxy)-acetic acid isobutyl ester] came in with a melting point of 177 to 178 °C.

The compound `COC(=O)NC(=N)c1ccc2c(c1)CN(CC(=O)c1ccc(OCC(=O)OC(C)C)cc1)C2=O` [Example 6, (4-{2-[5-(Imino-methoxycarbonylamino-methyl)-1-oxo-1,3-dihydro-isoindol-2-yl]-acetyl}-phenoxy)-acetic acid isopropyl ester] registered a melting point of 183 to 184 °C.

On to `CCOC(=O)COc1ccc(C(=O)CN2Cc3cc(C(=N)NO)ccc3C2=O)c(OCC(=O)OCC)c1` [Example 48, (3-Ethoxycarbonylmethoxy-4-{2-[5-(N-hydroxycarbamimidoyl)-1-oxo-1,3-dihydro-isoindol-2-yl]-acetyl}-phenoxy)-acetic acid ethyl ester], for which the melting point is 139 to 140 °C.

Regarding `N=C(N)c1ccc2c(c1)CN(CC(=O)c1ccc(OCC(=O)O)cc1O)C2=O` (as salt: trifluoroacetate) [Example 44, (4-{2-[5-Carbamimidoyl-1-oxo-1,3-dihydro-isoindol-2-yl]-acetyl}-3-hydroxy-phenoxy)-acetic acid], the melting point is 262 °C (dec.).

As to `CCOC(=O)COc1ccc(C(=O)CN2Cc3cc(C(=N)N)ccc3C2=O)cc1OCC(=O)OCC` (as salt: salt) (hydrate or solvate) [Example 20, (4-{2-[5-Carbamimidoyl-1-oxo-1,3-dihydro-isoindol-2-yl]-acetyl}-2-ethoxycarbonylmethoxy-phenoxy)-acetic acid ethyl ester], the melting point is 168 to 169 °C.

With `CCOC(=O)COc1ccc(C(=O)CN2Cc3cc(C(=N)NO)ccc3C2=O)cc1SCC` (hydrate or solvate) [Example 34, (2-Ethylsulfanyl-4-{2-[5-(N-hydroxycarbamimidoyl)-1-oxo-1,3-dihydro-isoindol-2-yl]-acetyl}-phenoxy)-acetic acid ethyl ester], the melting point lay in the range of 190 to 191 °C.

Compound `CCOC(=O)COc1ccc(C(=O)CN2Cc3cc(C(=N)NO)ccc3C2=O)c(OC)c1` [Example 45, (4-{2-[5-(N-Hydroxycarbamimidoyl)-1-oxo-1,3-dihydro-isoindol-2-yl]-acetyl}-3-methoxy-phenoxy)-acetic acid ethyl ester] returned a melting point of 163 to 165 °C.
